Results reported in publication PMC3161034 (BMC Cancer, 2011).
Where two headings read alike, the source gives them in different places.

Legend:
[1] = test system: patients with solid tumours; design: method as in PMID 18971935; settings: in combination with gemcitabine; cited from earlier work
[2] = test system: patients with advanced solid tumors; design: method as in PMID 17557949; settings: monotherapy; cited from earlier work
[3] = Motesanib plasma pharmacokinetics (LC-MS/MS, noncompartmental); design: species or system human; settings: in vivo; for half-life / Tmax / AUC(0-t) / concentration at 24 h / Cmax: human; for AUC(0-t) / concentration at 24 h / Cmax: week 3; for AUC(0-t): read-out: AUC0–24, median; for concentration at 24 h: read-out: C24, median; for Cmax: read-out: Cmax, median
Experimental: Plasma concentrations of motesanib were analyzed using a validated liquid chromatography/tandem mass spectrometry (LC-MS/MS) method with a lower limit of quantitation (LLOQ) of 0.2 ng/mL (Cedra Corp., Austin, TX).
Pharmacokinetic parameter estimates were calculated according to standard noncompartmental methods using WinNonlin software (version 5.1.1; Pharsight Corporation, Mountain View, CA) and summarized by dose level. […] For the BID cohort, AUC0—24 values for motesanib were determined by 2 × AUC0—12. The terminal elimination rate constant (λZ) was determined by linear regression of the natural logarithms of plasma concentrations versus time during the terminal phase; the corresponding t1/2 was calculated.

[4] = test system: patients with solid tumors
Experimental: The safety endpoint was the incidence of adverse events. Tumor response rate, as assessed by Response Evaluation Criteria in Solid Tumors (RECIST) in patients with measurable disease, was an exploratory endpoint.
Enrollment of a minimum of six evaluable patients per cohort was planned. If patients discontinued the study before week 5 for any reason other than a DLT, additional patients could be enrolled to meet this goal. The selected motesanib doses (50 mg QD, 100 mg QD, 125 mg QD, and 75 mg BID) were based on the tolerability profiles of motesanib administered as monotherapy and in combination with gemcitabine that were obtained in previous studies. The BID dosing regimen is expected to achieve higher predose motesanib concentrations in the plasma than QD dosing owing to the higher total dose administered and more frequent dosing.
Treatment continued until the end of week 48 (11 cycles), or until disease progression, death, or unacceptable toxicity occurred. Motesanib administration (in cohorts 1-4) began on day 2 of week 2 of the first cycle and continued throughout the study. Patients experiencing continuous clinical benefit (stable disease or response) at the end of 48 weeks were eligible to continue motesanib monotherapy under a separate protocol.
Patients enrolled in cohort 1 received an initial dose of motesanib of 50 mg QD. If ≤ 2 patients experienced a DLT during the first 5 weeks of treatment, enrollment into cohort 2 (motesanib 75 mg BID) and cohort 3 (motesanib 125 mg QD) began simultaneously. If ≤ 2 patients in cohort 3 experienced a DLT in the first 5 weeks of treatment, the 125-mg QD dose would be considered the target once-daily dose.
All adverse events were graded by the investigator according to National Cancer Institute Common Terminology Criteria for Adverse Events (CTCAE) version 3.0. All adverse events were classified according to relatedness to treatment and seriousness. […]

[5] = test system: cytochrome P450 (CYP) 3A4; settings: cited from earlier work
CYP1A2 = settings: cited from earlier work
[6] = 125 mg QD motesanib + 100 mg QD erlotinib + gemcitabine
[7] = 125 mg QD motesanib + 150 mg QD erlotinib

For CC1(C)CNc2cc(NC(=O)c3cccnc3NCc3ccncc3)ccc21 [motesanib], the Target dose [1] is listed as 125 mg QD, the “Maximum tolerated dose (MTD)” value [2] is listed as 125 mg QD and the half-life ([3]; 100 mg, read-out: Mean estimated terminal elimination half-life (t1/2, z)) is listed as 4.8 to 8.6 h. It also gave a Tmax ([3]; 100 mg, read-out: Overall median tmax) of 0.6 to 2 h, a Tmax ([3]; 150 mg) of 2 h and a half-life ([3]; 150 mg) of 6 to 7.7 h. For the same compound, the AUC(0-t) [3, 6] was 4770 ng·h/mL, the concentration at 24 h [3, 6] was 37 ng/mL and the Cmax [3, 6] was 655 ng/mL. The AUC(0-t) [3, 7] was 3120 ng·h/mL, the concentration at 24 h [3, 7] was 44.7 ng/mL and the Cmax [3, 7] was 443 ng/mL. For the same compound, the “Effect of combination on motesanib pharmacokinetics” value [3] was “not markedly affected”, the “Patients with dose-limiting toxicities, all cohorts” value ([4]; human, in vivo, 5 weeks) was 11 patients and the “Maximum tolerated dose (MTD)” value ([4]; in combination with erlotinib only (150 mg QD)) was 125 mg QD. The “Maximum tolerated dose (MTD)” value ([4]; in combination with gemcitabine (1000 mg/m^2 weekly) and erlotinib (100 mg QD)) was 100 mg QD, the “Effect on CYP3A4” value [5] was “inhibitor” and the “Effect on CYP1A2” value (CYP1A2) was “inducer”.
